From patent US12581252B2, “Substituted pyrrolo[3,4-b]pyridines as PI3K-α inhibitors” (Relay Therapeutics, Inc., priority 2020, dated 2026)

Experiments:
H1047R PIK3CA enzyme = H1047R PIK3CA enzyme (Homo sapiens, UniProt P42336, H1047R); assay: ADP-Glo Biochemical PIK3CA Kinase Assay
cells = settings: Homo sapiens, MCF-10A, read-out: MCF10A IC50

H1047R PIK3CA enzyme, sequence (P42336 whole entry H1047R): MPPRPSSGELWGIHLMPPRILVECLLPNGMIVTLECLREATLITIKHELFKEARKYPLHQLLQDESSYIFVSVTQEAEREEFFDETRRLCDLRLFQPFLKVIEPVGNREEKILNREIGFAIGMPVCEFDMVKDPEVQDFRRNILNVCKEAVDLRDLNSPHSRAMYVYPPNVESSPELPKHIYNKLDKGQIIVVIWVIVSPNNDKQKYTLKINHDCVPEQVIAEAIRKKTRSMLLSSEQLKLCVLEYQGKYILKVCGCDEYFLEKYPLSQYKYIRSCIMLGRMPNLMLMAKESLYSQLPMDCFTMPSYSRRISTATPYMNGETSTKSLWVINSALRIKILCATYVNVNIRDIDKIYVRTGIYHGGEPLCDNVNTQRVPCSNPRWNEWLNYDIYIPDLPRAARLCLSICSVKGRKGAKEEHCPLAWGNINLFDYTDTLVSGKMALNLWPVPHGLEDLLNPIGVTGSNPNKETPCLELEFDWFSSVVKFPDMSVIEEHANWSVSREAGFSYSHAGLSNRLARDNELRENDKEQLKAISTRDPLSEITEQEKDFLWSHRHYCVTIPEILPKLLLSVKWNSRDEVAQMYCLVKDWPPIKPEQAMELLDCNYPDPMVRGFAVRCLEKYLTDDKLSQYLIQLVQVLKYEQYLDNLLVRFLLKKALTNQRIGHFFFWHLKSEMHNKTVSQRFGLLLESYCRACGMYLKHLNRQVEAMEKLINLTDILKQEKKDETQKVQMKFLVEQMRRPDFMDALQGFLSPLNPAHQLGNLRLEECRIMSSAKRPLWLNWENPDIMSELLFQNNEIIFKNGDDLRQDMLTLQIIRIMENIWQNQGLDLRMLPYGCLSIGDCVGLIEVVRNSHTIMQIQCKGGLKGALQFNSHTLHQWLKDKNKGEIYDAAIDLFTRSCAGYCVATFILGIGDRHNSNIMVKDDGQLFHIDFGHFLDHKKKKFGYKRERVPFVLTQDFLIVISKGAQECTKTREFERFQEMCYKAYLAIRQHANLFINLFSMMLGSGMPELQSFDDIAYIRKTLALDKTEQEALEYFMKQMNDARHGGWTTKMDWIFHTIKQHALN
H1047R PIK3CA enzyme, sequence (P27986 whole entry partner): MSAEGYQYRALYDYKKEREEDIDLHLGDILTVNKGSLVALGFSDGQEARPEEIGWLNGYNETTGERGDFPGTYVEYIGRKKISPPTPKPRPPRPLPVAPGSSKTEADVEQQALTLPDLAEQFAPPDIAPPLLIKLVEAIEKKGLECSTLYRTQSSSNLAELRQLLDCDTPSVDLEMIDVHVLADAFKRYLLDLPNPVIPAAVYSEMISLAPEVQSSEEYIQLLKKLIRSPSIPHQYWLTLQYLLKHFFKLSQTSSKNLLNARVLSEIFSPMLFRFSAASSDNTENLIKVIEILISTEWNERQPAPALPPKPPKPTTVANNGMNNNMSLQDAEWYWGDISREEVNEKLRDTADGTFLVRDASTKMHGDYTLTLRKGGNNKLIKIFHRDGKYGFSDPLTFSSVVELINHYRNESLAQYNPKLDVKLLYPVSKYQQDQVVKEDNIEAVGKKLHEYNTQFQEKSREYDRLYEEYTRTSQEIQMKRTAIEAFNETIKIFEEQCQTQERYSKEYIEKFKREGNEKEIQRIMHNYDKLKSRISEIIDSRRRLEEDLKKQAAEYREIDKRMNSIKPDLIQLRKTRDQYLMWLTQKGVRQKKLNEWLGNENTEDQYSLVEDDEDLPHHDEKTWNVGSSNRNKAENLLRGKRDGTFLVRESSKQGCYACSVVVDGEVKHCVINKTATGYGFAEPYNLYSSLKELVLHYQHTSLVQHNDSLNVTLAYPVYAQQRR

For O=C(Nc1cc(N2CCOCC2)cc2c1C(c1cc(F)ccc1Cl)NC2=O)c1cc(F)cc(C(F)(F)F)c1 (stereo not shown) [Compound I-1164], the IC50 (H1047R PIK3CA enzyme) was no more than 100 nM and the IC50 (cells) was less than 1 µM.
COCc1cc(NC(=O)c2nsc3ccccc23)c2c(c1)C(=O)NC2c1ccccc1C (stereo not shown) [Compound I-146, N-(6-(Methoxymethyl)-1-oxo-3-(o-tolyl)isoindolin-4-yl)benzo[d]isothiazole-3-carboxamide] showed an IC50 (H1047R PIK3CA enzyme) of no more than 100 nM and an IC50 (cells) of 5 to 10 µM.
NCCc1cc(NC(=O)N2C[C@H](O)c3cc(F)ccc32)c2c(c1)C(=O)N[C@@H]2c1cc(F)ccc1Cl (single isomer, unassigned) [Compound I-2443] showed an IC50 (H1047R PIK3CA enzyme) of no more than 100 nM and an IC50 (cells) of 10 to 36 µM.
CSCc1cc(NC(=O)c2cc(F)cc(C(F)(F)F)c2)c2c(c1)C(=O)NC2c1cc(F)ccc1Cl (stereo not shown) [Compound I-914] gave an IC50 (H1047R PIK3CA enzyme) of no more than 100 nM and an IC50 (cells) of less than 1 µM.
N#CCc1cc(NC(=O)N2C[C@](O)(C(F)(F)F)c3ccccc32)c2c(c1)C(=O)N[C@@H]2c1cc(F)ccc1Cl (single isomer, unassigned) [Compound I-2605] showed an IC50 (H1047R PIK3CA enzyme) of no more than 100 nM and an IC50 (cells) of less than 1 µM.
With N#CCCc1cc(NC(=O)c2cc(F)cc(C(F)(F)F)c2)c2c(c1)C(=O)N[C@H]2c1cc(F)ccc1Cl (stereo in doubt) [Compound I-2169] the IC50 (H1047R PIK3CA enzyme) was no more than 100 nM and the IC50 (cells) was less than 1 µM.
O=C(Nc1cc(-n2ccccc2=O)cc2c1C(c1cc(F)ccc1Cl)NC2=O)c1cc(F)cc(C(F)(F)F)c1 (stereo not shown) [Compound I-2192] showed an IC50 (H1047R PIK3CA enzyme) of no more than 100 nM and an IC50 (cells) of 1 to 5 µM.
For O=C(Nc1cc(-c2n[nH]c3ccccc23)cc2c1C(c1cc(F)ccc1Cl)NC2=O)c1cc(F)cc(C(F)(F)F)c1 (stereo not shown) [Compound I-937], the IC50 (H1047R PIK3CA enzyme) was 100 to 500 nM and the IC50 (cells) was 1 to 5 µM.
Work on O=C(Nc1cc(NC2=NC3(CC3)CO2)cc2c1C(c1cc(F)ccc1Cl)NC2=O)c1cc(F)cc(C(F)(F)F)c1 (stereo not shown) [Compound I-2359] yielded an IC50 (H1047R PIK3CA enzyme) of no more than 100 nM and an IC50 (cells) of 1 to 5 µM.
With Cc1cc2ncc(-c3cc(NC(=O)c4cc(F)cc(C(F)(F)F)c4)c4c(c3)C(=O)NC4c3cc(F)ccc3Cl)cn2n1 (stereo not shown) [Compound I-1032] the IC50 (H1047R PIK3CA enzyme) was no more than 100 nM and the IC50 (cells) was less than 1 µM.
Cc1ccccc1C1NC(=O)c2cccc(NC(=O)c3csc4cnccc34)c21 (stereo not shown) [Compound I-46] showed an IC50 (H1047R PIK3CA enzyme) of 100 to 500 nM and an IC50 (cells) of 10 to 36 µM.
Work on O=C(Nc1cc(-c2cn[nH]c2)nc2c1C(c1cc(F)ccc1Cl)NC2=O)c1cc(F)cc(C(F)(F)F)c1 (stereo not shown) [Compound I-161] yielded an IC50 (H1047R PIK3CA enzyme) of no more than 100 nM and an IC50 (cells) of 1 to 5 µM.
In the case of N#CCCc1cc(NC(=O)N2C[C@H](O)c3cc(F)ccc32)c2c(c1)C(=O)N[C@H]2c1cc(F)ccc1Cl (single isomer, unassigned) [Compound I-2346], the IC50 (H1047R PIK3CA enzyme) is reported as no more than 100 nM and the IC50 (cells) is reported as 1 to 5 µM.
Compound CNc1cc(NC(=O)N2CC(O)(C(F)(F)F)c3cc(F)ccc32)c2c(c1C#N)C(=O)NC2c1cc(F)ccc1Cl (stereo not shown) [Compound I-2587] has an IC50 (H1047R PIK3CA enzyme) of no more than 100 nM and an IC50 (cells) of 1 to 5 µM.
For O=C(Nc1cc(CC2(O)CNC2)cc2c1C(c1cc(F)ccc1Cl)NC2=O)c1cc(F)cc(C(F)(F)F)c1 (stereo not shown) [Compound I-926], the IC50 (H1047R PIK3CA enzyme) was no more than 100 nM and the IC50 (cells) was 10 to 36 µM.
With O=C(Nc1cc(C2CN(c3ccncn3)C2)cc2c1C(c1cc(F)ccc1Cl)NC2=O)c1cc(F)cc(C(F)(F)F)c1 (stereo not shown) [Compound I-1104] the IC50 (H1047R PIK3CA enzyme) was no more than 100 nM and the IC50 (cells) was less than 1 µM.
O=C(Nc1cc(-c2cnn(C(F)F)c2)cc2c1[C@H](c1cc(F)ccc1Cl)NC2=O)c1cc(F)cc(C(F)(F)F)c1 (single isomer, unassigned) [Compound I-1740] gave an IC50 (H1047R PIK3CA enzyme) of no more than 100 nM and an IC50 (cells) of less than 1 µM.
In the case of N#Cc1cc(NC(=O)N2C[C@@](O)(C(F)(F)F)c3ccccc32)c2c(c1)C(=O)N[C@@H]2c1cc(F)ccc1Cl (single isomer, unassigned) [Compound I-2564], the IC50 (H1047R PIK3CA enzyme) is reported as no more than 100 nM and the IC50 (cells) is reported as less than 1 µM.
With Cc1ccccc1C1NC(=O)c2cccc(NC(=O)c3coc4ccc(F)cc34)c21 (stereo not shown) [Compound I-19] the IC50 (H1047R PIK3CA enzyme) was 500 to 1000 nM and the IC50 (cells) was 1 to 5 µM.
O=C(Nc1cc(NC2=NC3(CO2)CC(F)(F)C3)cc2c1C(c1cc(F)ccc1Cl)NC2=O)c1cc(F)cc(C(F)(F)F)c1 (stereo not shown) [Compound I-2409] showed an IC50 (H1047R PIK3CA enzyme) of no more than 100 nM and an IC50 (cells) of 5 to 10 µM.
